These results are taken from ChEMBL document CHEMBL4665857, “Optimization of linear and cyclic peptide inhibitors of KEAP1-NRF2 protein-protein interaction” (Bioorg Med Chem, 2020).

This experiment has as its target Kelch-like ECH-associated protein 1 (Homo sapiens, UniProt Q14145). The experiment is described as follows: Binding affinity to human KEAP1 Kelch domain (322 to 609 residues) incubated for 60 mins by TR-FRET assay.

Non-standard residues stand in square brackets, D forms with d. Residues, ends and D or L forms follow the SMILES beside them. Phe(4-CONH2) = NC(=O)c1ccc(C[C@H](N)C(=O)O)cc1; Pro(cis-4-F) = O=C(O)[C@@H]1C[C@H](F)CN1; hPhe = N[C@@H](CCc1ccccc1)C(=O)O; hSer = N[C@@H](CCO)C(=O)O

Chain of Kelch-like ECH-associated protein 1 (Q14145 whole entry, the tested form may be a part): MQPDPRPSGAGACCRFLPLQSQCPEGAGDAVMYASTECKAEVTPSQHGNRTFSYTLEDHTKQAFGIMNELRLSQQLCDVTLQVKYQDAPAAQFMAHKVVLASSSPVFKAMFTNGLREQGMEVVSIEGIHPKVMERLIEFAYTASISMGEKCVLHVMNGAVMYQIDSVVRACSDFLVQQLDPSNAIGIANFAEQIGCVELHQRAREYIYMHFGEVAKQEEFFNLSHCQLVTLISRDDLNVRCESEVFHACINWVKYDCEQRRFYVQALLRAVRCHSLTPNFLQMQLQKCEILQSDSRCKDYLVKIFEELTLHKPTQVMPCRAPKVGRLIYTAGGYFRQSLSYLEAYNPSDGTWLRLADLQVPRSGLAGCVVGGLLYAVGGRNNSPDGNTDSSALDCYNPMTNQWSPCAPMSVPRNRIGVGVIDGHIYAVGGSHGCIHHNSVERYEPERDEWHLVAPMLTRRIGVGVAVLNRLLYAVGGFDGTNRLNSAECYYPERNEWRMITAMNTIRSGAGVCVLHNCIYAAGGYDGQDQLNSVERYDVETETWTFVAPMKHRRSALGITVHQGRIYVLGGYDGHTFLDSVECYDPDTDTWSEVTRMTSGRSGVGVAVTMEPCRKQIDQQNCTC

With `CC(=O)N[C@@H](CC(C)C)C(=O)N[C@@H](CC(=O)O)C(=O)N1C[C@@H](F)C[C@H]1C(=O)N[C@@H](CCC(=O)O)C(=O)N[C@@H](Cc1ccccc1)C(=O)NCC(=O)N[C@@H](CCC(=O)O)C(=O)N[C@@H](Cc1ccccc1)C(=O)N[C@@H](CC(C)C)C(N)=O` (Ac-LD[Pro(cis-4-F)]EFGEFL-NH2), the IC50 is > 64 µM.

As to `CC(=O)N[C@@H](CC(C)C)C(=O)N[C@@H](CC(=O)O)C(=O)N[C@@H](CCC(=O)O)C(=O)N[C@@H](CCC(=O)O)C(=O)N[C@H](C(=O)NCC(=O)N[C@@H](CCO)C(=O)N[C@@H](Cc1ccccc1)C(=O)N[C@@H](CC(C)C)C(N)=O)[C@@H](C)O` (Ac-LDEETG[hSer]FL-NH2), the IC50 was > 50 µM.

As for `CC(=O)N[C@@H](CC(C)C)C(=O)N[C@@H](CC(=O)O)C(=O)N[C@@H](CCC(=O)O)C(=O)N[C@@H](CCC(=O)O)C(=O)N[C@H](C(=O)NCC(=O)N[C@@H](Cc1ccc(C(N)=O)cc1)C(=O)N[C@@H](Cc1ccccc1)C(=O)N[C@@H](CC(C)C)C(N)=O)[C@@H](C)O` (Ac-LDEETG[Phe(4-CONH2)]FL-NH2), the IC50 was > 64 µM.

On to `CC(=O)N[C@@H](CC(C)C)C(=O)N[C@@H](CC(=O)O)C(=O)N[C@@H](CCC(=O)O)C(=O)N[C@@H](CCc1ccccc1)C(=O)N[C@H](C(=O)NCC(=O)N[C@@H](CCC(=O)O)C(=O)N[C@@H](Cc1ccccc1)C(=O)N[C@@H](CC(C)C)C(N)=O)[C@@H](C)O` (Ac-LDE[hPhe]TGEFL-NH2), for which the half-inhibitory concentration (IC50) is > 64 µM.

Turning to Ac-LDEQTGEFL-NH2, the IC50 is > 64 µM.
